This test has as its system HVA calcium channel (high-voltage activated calcium ion channel). The class given is cell-based, rat.

The values that follow come from patent US10246490B2 (priority 2014, dated 2019).

`COC(=O)C1=C(C)NC(C)=C(C(=O)OC)C1c1ccccc1[N+](=O)[O-]` [Nifedipine]: the current after loading was −734.31 pA and the current before loading is on record as −1471.35 pA. Moreover, under “10 μM”, the inhibition rate amounted to 50.09%.
